{"source": "patent US20160353747A1", "about": "“COMPOSITIONS AND METHODS FOR ACHIEVING A BIOLOGICAL EFFECT IN TARGET VEGETATION” (Ento Bio LLC, priority 2015, published 2016)", "tested_on": "zinnia (Zinnia peruviana var. “Giant Dahlia”) seedlings", "assay": "Herbicidal effect (percent control) on zinnia seedlings", "format": "in vivo", "conditions": "Enz 0 mg, 2 mL dose", "description": "In one example, combinations of cellulase and hemicellulase from Trichoderma viride (i.e. depolymerase, labeled “Enz” in Table 1), bovine serum albumin (i.e. non-depolymerase protein, labeled “BSA” in Table 1), and glyphosate (labeled “Gly” in Table 1) are blended and applied in 2 mL doses directly to zinnia (Zinnia peruviana var. “Giant Dahlia”) seedlings at the first true leaf stage. Treatments ranged from 0-1.6 mg of depolymerase that consisted of cellulase from Trichoderma viride and hemicellulase from Aspergillus niger in a ratio of 10.5:6, respectively; non-depolymerase BSA from 0-24 mg; and glyphosate from 0-0.3 mg. […] Herbicidal effect was assessed 12 days after treatment (DAT). Percent control ratings ascertained the extent of control, i.e. reduction in growth, and were scored on a basis of 0 to 100 where 100 represents complete killing of the plants and 0 represents no reduction in growth as compared to the untreated control."}
{"compound": "O=C(O)CNCP(=O)(O)O", "note": "[Gly, glyphosate]", "values": [{"measurement": "Percent Control 12 DAT", "setting": "Gly 0.003 mg, BSA 0 mg", "value": 0, "unit": "%"}, {"measurement": "Percent Control 12 DAT", "setting": "Gly 0.03 mg, BSA 0 mg", "value": 28, "unit": "%"}, {"measurement": "Percent Control 12 DAT", "setting": "Gly 0.3 mg, BSA 0 mg", "value": 28, "unit": "%"}]}
{"compound": "bovine serum albumin [BSA]", "values": [{"measurement": "Percent Control 12 DAT", "setting": "Gly 0 mg, BSA 0.24 mg", "value": 3, "unit": "%"}, {"measurement": "Percent Control 12 DAT", "setting": "Gly 0 mg, BSA 2.4 mg", "value": 7, "unit": "%"}, {"measurement": "Percent Control 12 DAT", "setting": "Gly 0 mg, BSA 24 mg", "value": 13, "unit": "%"}]}
